Data set [1] has as its target T1, HIV-1 integrase (Human immunodeficiency virus type 1 group M subtype B, UniProt P04585).
T1 construct: using the integrase coding domain from the HXB2 clone of HIV-1 DNA; made in house; host or cells: E. coli
The experiment in a line: Integrase inhibition assay (cleavage and strand transfer of 32P-labelled HIV-1 U5/U3 oligonucleotide substrate). It counts as biochemical. As to the method: Integrase was overproduced in E. coli from an inducible plasmid containing the integrase sequence under control of a lacI-regulated T7 polymerase using the integrase coding domain from the HXB2 clone of HIV-1 DNA (L. Ratner et al, AIDS Res. Hum. Retroviruses 3, 57-69 (1987)), pT7fll-IN. A one liter culture at an O.D. of 0.6 was induced by the addition of IPTG to 0.5 mM. After three hours, the cells were harvested by centrifugation and the pellets were stored at −70° C.
The integrase protein was purified by a modification of the method of Sherman and Fyfe (P. Sherman et al, Proc. Natl. Acad. Sci. USA 87, 5119-23 (1990)). The cells were lysed by thawing in a buffer (50 mM Tris-HCl pH 7.5, 5 mM dithiothreitol, 1 mM EDTA, 1 mg/ml lysozyme) on ice at 6 ml/g bacterial pellet for 30 minutes, and then incubating at 37° C. for 5 minutes. The lysate was centrifuged at 12,000×g for one hour. The pellets were resuspended in 50 mM Tris-HCl, pH 7.5, 1 mM dithiothreitol, 1 mM EDTA, 1 M NaCl (4 ml/g original bacteria). The homogenate was stirred for 30 minutes at 4° C. and recentrifuged for 30 minutes at 12,000×g.
The supernatant was made 0.8 M in ammonium sulfate by the slow addition of powder with stirring over a 30 minute period. The extract was then centrifuged to remove any precipitate and applied to a phenyl sepharose column. After a 50 ml wash with high salt buffer (50 mM Tris-HCl, 1 mM EDTA, 5 mM DTT, 2 M NaCl), the protein was eluted with a gradient from high salt to O salt buffer containing 10% (weight/vol) glycerol and further purified through a G75 Sephadex column to remove background nuclease. A one liter culture generates enough integrase activity to perform over a thousand drug inhibition assays.
Cleavage of specific sites is assessed as described in Sherman et al., supra, except that the assay buffer was the same as that reported by Chow et al, Science 255, 723-6 (1992). Single 20 mer oligonucleotides corresponding to either the U5 or U3 ends of HIV-1 are end-labeled with ^32P, annealed with its complement, purified, and used under the same conditions as described above for the endonuclease assay. Reaction products are denatured with formamide, electrophoresed through 20% denaturing polyacrylamide gels and visualized by autoradiography. Both cleavage and ligation activity can be assessed from one gel. To assess the ligation activity alone, “precleaved” substrate that had the −2 cleavage artificially produced by using a radiolabelled 18 mer oligonucleotide was also used for some experiments.
Integrase overproduced in E. coli was purified as described above in accordance with Sherman et al, supra, and used in drug inhibition assays. […] Dilutions of the inhibitor compounds described in Example 1 above were mixed with substrate before the addition of enzyme. The Assay was the same as described in Example 2 and used the substrate described in Example 2. Each assay was performed in duplicate. Radioactivity in bands on dried gels were quantitated with a Phosphor imager to assess drug effects on both the cleavage, nuclease, and ligation products. The IC50 values for integrase inhibition were calculated for both the cleaving and joining parts of the integrase reaction after determining the % inhibition of the control reaction for a series of drug concentrations. Compounds A, B, C, and D had similar effects on integrase activity. Compound A, however, caused aggregation of the substrate starting at relatively low concentrations (10 μM), complicating its assessment.

Data set [2] relates to HIV-1. The experiment in a line: Magic cell HIV-1 inhibition assay. It counts as cell-based, HIV-1 strain HXB2. The note with it: Human immunodeficiency virus 1; Magic cells, infectious units with or without drug, 4 h pretreatment, read two days later. As to the method: Cell lines used were CEM cells, a human T-cell lymphona cell line, A. Kaplan et al, J. Virol. 67, 4050-5 (1993), and Magic cells, J. Kimpton et al, J. Virol. 66, 2232-2239 (1992). The CEM cells were grown in RPM1-1640 medium supplemented with 5% FCS. The Magic Cells, a HELA derivative, were grown in DMEM/H supplemented with 5% FCS, G418 ([…]) and Hygromycin ([…]). The HIV isolate was strain HXB2, originally from Lee Ratner in the laboratory of Robert Gallo at the National Institutes of Health.
The magic cell assay described by Kimpton et al., supra, was used as described. This assay identifies individual cells infected with HIV-1 by the expression of tat, which transactivates an endogenous copy of the HIV-1 LTR linked to the lac2 reporter gene after integration, inducing β-galactosidase expression when x-gal is added to the cell medium. Any cell with integrated HIV-1 will turn blue. Thus, this assay provides a convenient way to determine the effect of HIV inhibitors at any early step up through the expression of tat, including the inhibition of integration.
The magic cells are plated in twelve-well plates one day prior to infection. The standard assay involves infection with approximately 200 infectious units of HIV-1. This gives an approximately 20 to 1 ratio of signal to background and sufficient numbers of infectious events to quantitate dim effects. The cells are pretreated with drug for 4 hours prior to virus infection, and virus adsorption takes place for 1 hour. The cells are washed with plain medium, and then medium with inhibitor is placed back on the cells. Two days later the cells are fixed after integration with x-gal, the indicator reagent for β-galactosidase production. The number of β-galactosidase expressing cells are quantitated by light microscopy.
The results of comparisons of infectious units with or without various concentrations of the bis-benzimididazoles drugs in the magic cell assay are expressed as IC50 values and are compiled in Table 2 above. Note that the best anti-HIV compounds (B-D) were also the best integrase inhibitors, except for compound A, which could not be accurately measured due to its substrate aggregating properties.

Data set [3] deals with Magic cells. The experiment in a line: Toxicity assay (XTT) on the cell lines used to measure virus infectivity. It counts as cell-based. The conditions noted are these: human, 2 days. As to the method: (§1) Three different toxicity tests were performed on the cell lines used to measure virus infectivity.
(§2) The initial test for toxicity utilized the XTT Assay as described by Weislow et al, J. Natl. Cancer Inst. 81, 577-586 (1989). This is the standard assay used originally to measure cell toxicity by potential reverse transcriptase inhibitors. Briefly, cells were grown to cells/ml and drug dilutions were added to the medium. After two days incubation, XTT reagent is added and incubation is continued for 4 h at 37° C. Following incubation, the plates are read at 450 minus 650 nm (the 650 value is the backround value which is automatically subtracted) with controls of media+XTT reagent without cells, and cells+media without reagent. Also a control of cells+media+XTT reagent was run for each plate. Medium without phenol red was employed to minimize background color as the XTT reagent goes from colorless (unreduced) to orange (reduced). The XTT reagent was freshly prepared on the day of assay as follows: 1 mg/ml of XTT in […] phenazine methosulfate. The phenazine methosulfate solution was prepared ahead of time and stored at 4° C. in a dark bottle. The XTT reagent is added to the microtiter wells at 24 ul per 100 ul of medium. The O.D. was measured on a Vmax plate reader from Molecular Devices Co. with data reduction. Results are expressed as percent of untreated controls. The least toxic compounds were Compounds A, B, and F with toxicities values at 500 μM or greater.
(§3) The third test for cell toxicity assessed growth rate in the presence of the test compound versus a control culture. Magic cells were grown over a period of 15 days with or without various dilutions of test compound. Aliquots were removed every other day and the cells were counted in a hemocytometer. The results are set forth in FIG. 2 herein (see also Table 2 below).
On the technique in general: Tetrazolium dyes change colour on reduction, which living cells bring about.

Experiment in data set [4]: as above
The conditions noted are these: human. It counts as cell-based. The method, then: as §1, §2, §3

Data set [5] relates to HIV-1. The experiment in a line: Standard reinfection assay of antiviral activity. The conditions noted are these: Human immunodeficiency virus 1. It counts as cell-based. As to the method: In addition, the assessment of antiviral activity as measured by the standard reinfection assay was performed for compound B. The IC50 for compound B in this assay was 10-30 μM. This confirms that the Magic cell assay is suitable for screening potential integrase inhibitors with good antiviral activity.

Data set [6] has as its system Magic cells. The experiment in a line: Growth rate in the presence of test compound. It counts as cell-based. As to the method: as §3
The most sensitive test employed measurements of growth rates for the cells in the presence of the test compound. Although the anti-viral assay used was one that assessed early times of the viral life cycle, this test was carried out for 15 days, with counting of cell numbers in cultures performed every other day during this time.

Data set [7] deals with Magic cells. The experiment in a line: Plating efficiency test. It counts as cell-based. The note with it: at the concentrations at which anti-viral effects were observed. The method, then: Next, a plating efficiency test measured the ability of the cell to grow after incubation with drug for a number of days. Magic cells were grown from an initial cell concentration of 0.8×104 with or without various concentrations of test compound for 6 days. Plating ability of the cells was assessed by plating dilutions of each culture on plastic. Colony forming units were determined after growth for two to four days by counting colonies after staining the plates. Each sample was plated in duplicate and the colony number averaged.
Another test of cellular effects by the compounds was a measure of plating efficiency of the cells after incubation with various concentrations of test agents. This will assess the actual killing of the cells by the drugs. The IC50 values are expected to be much higher in this test.

The mark [8] stands for this setting: Integrase Cleavage IC50, % cleavage of the substrate compared to control.
The mark [9] stands for this setting: Integrase Strand Transfer IC50, joining part of the integrase reaction.

pIC50: −log10 of the molar value. Read-outs that look alike come from different tables or passages of the source. Where only a bound is given, the exact number is not on record here.

One may read the pIC50 as the IC50 on a negative log10 scale, so that one unit is a factor of ten. What is called IC50 is the concentration that gives 50% inhibition.

Turning to `N=C(N)c1ccc2nc(C=Cc3nc4ccc(C(=N)N)cc4[nH]3)[nH]c2c1` [Compound A, 1,2-bis[5-amidino-2-benzimidazolyl]ethene], the pIC50 is 4.96 in data set [1] (setting [8]), 4.94 in data set [1] (setting [9]) and 4.32 in data set [2]. The “Concentration at which aggregation of the substrate starts” value in data set [1] (integrase assay substrate) came out at 10 µM. In data set [3], the “XTT assay toxicity value” is no less than 500 µM. The IC50 at 2 days in data set [4] is greater than 500 µM.

`CC(C)NC(=N)c1ccc2nc(C=Cc3nc4ccc(C(=N)NC(C)C)cc4[nH]3)[nH]c2c1` [Compound B, 1,2-bis[5-isopropylamidino-2-benzimidazolyl]ethene]: the pIC50 in data set [5] was 4.52 to 5.00; in data set [1] (setting [8]), 4.21; in data set [1] (setting [9]), 4.72; in data set [2], 4.52 to 5.00. Also, in data set [6] (concentration that inhibited 50% of the viral integration events, up to two weeks), the “Effect on growth rate of the cell line” value is given as “no effect on the growth rate”. In addition, in data set [6] (higher concentrations, 15 days test), the “Effect on growth rate of the cells” value was “did effect the growth rate”. In data set [7], the “Effect on Magic cell plating efficiency” value is “no effect”. For the same compound, the “XTT assay toxicity value” in data set [3] is no less than 500 µM. Besides, in data set [4], the IC50 at 2 days was determined as 473 µM.

For the compound `N=C(N)c1ccc2nc(Cc3nc4ccc(C(=N)N)cc4[nH]3)[nH]c2c1` [D, bis[5-amidino-2-benzimidazolyl]methane], the pIC50 in data set [2] was 5.15. The IC50 at 2 days in data set [4] (Magic cells, read-out: Magic Cells Toxicity IC50) amounted to 175 µM.

Take `N=C(N)c1ccc2[nH]c(Cc3nc4cc(C5=NCCN5)ccc4[nH]3)nc2c1` [E, (5-Amidino-2-benzimidazolyl)-(5′-(2-imidazolinyl)-2′-benzimidazolyl)methane]: the pIC50 in data set [1] (setting [8]) is less than 4.00; in data set [1] (setting [9]), 3.91; in data set [2], 4.80. In data set [4], this compound registered an IC50 at 2 days of 65 µM.

The record behind these values is patent publication US6815461B1, “Method of inhibiting retroviral integrase” (The University of North Carolina at Chapel Hill, priority 1994, dated 2004).
